Experimental data reported in publication PMC8253137, “Microbiota-derived butyrate is an endogenous HIF prolyl hydroxylase inhibitor” (Gut Microbes, 2021).
Like-named read-outs stand apart in the source and are kept apart here.

What was measured:
PHD2_181-402 [1] = biological target: T1, PHD2_181-402 (Homo sapiens, UniProt Q9GZT9); test: PHD2_181-402 inhibition assay (bioluminescent succinate detection, Succinate-Glo); assay type: biochemical; conditions: for IC50: read-out: True IC50; for fold less effective at inhibiting PHD2_181-402 (compared to butyrate): relative to butyrate true IC50
Experimental: PHD2_181-402 activity and inhibition assays were performed with the Succinate-Glo JmjC Demethylase/Hydroxylase Assay Kit (Promega) according to manufacturer protocol and as detailed in Alves et al. […] The enzymatic reaction was incubated at room temperature for 10 minutes, after which succinate formation was detected according to manufacturer protocol. […] Then, 20 µL of Succinate Detection Reagent II was added to the reactions and incubated for 10 min at room temperature before the luciferase-generated luminescence was recorded on a plate-reading luminometer. Succinate standard curves were used to determine the sensitivity and linear range of the bioluminescent succinate detection. […] Succinate standards were serially diluted two-fold from 15 µM to 58.6 nM and a 0 succinate blank. 10 µL of succinate standards were used for detection as described above. […] Reactions were incubated at room temperature for 10 minutes and succinate detected. […] Measured IC50s were calculated from fitting the percentage activity data to the [Inhibitor] vs. normalized response – variable slope least squares nonlinear regression in GraphPad Prism 9. True IC50s were calculated from measured IC50s with the equation derived by Wu et al.[26] describing the relationship between the measured IC50 of an inhibitor and the percentage of substrate conversion.

PHD2_181-402 [2] = biological target: T1, PHD2_181-402; test: WaterLOGSY 1D NMR binding; conditions: 10 mM ligand, 25 μM PHD2_181-402
Text: Next, we established whether butyrate binds directly to PHD2_181-402 using 1D WaterLOGSY NMR.[28] This method enables sensitive and robust detection of binding (dissociation constants as weak as μM to low mM) based on the magnetization transfer between water molecules, proteins, and ligands of interest in close proximity via dipolar proton–proton cross-relaxation (nuclear Overhauser effect, NOE). […] Binding and non-binding ligands can be distinguished in a WaterLOGSY spectrum via their opposite signs in relation to water for their corresponding peaks.
Following an established protocol, all NMR analyses were performed using PHD2_181-402 and the diamagnetic element (Zn^2+) rather than a paramagnetic element such as Fe^2+ that would result in inhibitive signal reduction or loss due to fast relaxation induced by the unpaired electron.[63]
Water-Ligand Observed via Gradient SpectroscopY (WaterLOGSY): Measurements were carried out on a 600 MHz triple-resonance Bruker cryoprobe spectrometer.[28] Selective water inversion was achieved using an iBURP shaped pulse with 15 ms length and an inversion bandwidth of 0.4 ppm. The mixing time was set to 1 s, and the water was suppressed using double Watergate. 1024 scans were acquired with an interscan delay of 2 s. The sample concentration was 25 µM of PHD2_181-402 mixed with 10 mM of the different ligands in NMR buffer (Tris 50 mM, NaCl 20 mM, ZnCl2 100 μM) at pH 6.5.

HDACs = system: HDACs; design: method as in PMID 18061431, PMID 30052654; conditions: cited from earlier work
T84 cells [3] = test: 2-OG levels in T84 cells; assay type: cell-based; conditions: 3 h, 10 mM butyrate or 30 μM IOX2
Experimental: (§1) T84 cells were cultured in 95% air with 5% CO2 at 37°C in standard media made of DMEM:F-12 supplemented with 10% calf serum, 1% penicillin/streptomycin, and 1% GlutaMAX™ (ThermoFisher Scientific) on 9.6 cm^2 6-well plates (ThermoFisher Scientific). Real-time oxygen sensing was done using the SensorDish Reader from Applikon Biotechnology as described previously with T84 cells plated on 0.33 cm^2 transwell inserts (Corning, 0.4 μm).[12] All MCPA treatments included a 2 h pretreatment with MCPA before treatment with butyrate.
(§2) Metabolites Extractions and HPLC-DAD: Cell and colon tissue metabolites were extracted and analyzed as previously described with minor variations.[61],[62] The metabolites were detected by absorption at wavelengths of 210, 254, and 280 nm, with their absorbance spectra and retention times verified by co-injection with authentic standards. Metabolites for HPLC-ESI MS analyses were resuspended in deionized water (pH 7.2).
HPLC-ESI MS: Analyses were performed on an Agilent Technologies 1260 Infinity II LC/MSD iQ with electrospray ionization (ESI) mass detection. Negative ion mass-to-charge ratios (m/z) were scanned from 50 to 500. The metabolite extracts were chromatographed using a Sepax Carbomix column (Pb-Np5:8%, 5 μm, non-porous, 4.6 × 300 mm) (mobile phase A: water; mobile phase B: acetonitrile; column temperature, 75°C). Chromatographic separation was performed using a combination of isocratic and gradient methods, including column washing and equilibration periods at the end (0 min: 100% A, 0.12 mL/min; 60 min: 100% A, 0.12 mL/min; 70 min: 70% A, 0.5 mL/min; 145 min: 70% A, 0.5 mL/min; 150 min: 100% A, 0.5 mL/min; 164 min, 100% A, 0.5 mL/min; 165 min, 100% A, 0.12 mL/min; 170 min, 100% A, 0.12 mL/min).

murine colon tissue [4] = test: Rectal gavage in antibiotic-treated SCFA-depleted mice; assay type: in vivo; conditions: rectal 100 mM butyrate or 1.5 mM IOX2, 1 h, after antibiotics
Experimental: (§3) C57BL/6 mice were purchased from Jackson Laboratories. Animals were maintained and bred in standard housing conditions under 24 h/day, 7 days/week veterinary care available at the University of Colorado Anschutz Medical Campus (AMC) animal facility. All animal procedures were reviewed and approved by the Institutional Animal Care and Use Committee at AMC. 8 to 10-week-old male and female mice were pre-administered an antibiotic cocktail consisting of 1 mg/mL ampicillin, gentamicin, and neomycin, 0.5 mg/mL vancomycin, and 0.25 mg/mL metronidazole for 5 d ad libitum in addition to water control mice. Mice were then given 200 µL of tributyrin daily for three days using reusable feeding needles (18060–20, Fine Science Tools). On the third day, 4 h prior to sacrifice, select mice given tributyrin were rectally given 100 μL of 60 mM MCPA with plastic gavage tubes (FTP-20-38-50, Instech) inserted 1 cm into the rectum without surgical lubricant. Whole colon tissue at the site of the rectal gavage was collected for metabolite analysis, while colon whole tissue and epithelial scrapings upstream from the gavage site was collected for RNA and protein analysis. In the second butyrate reconstitution experiment, mice were rectally given 100 μL of 100 mM butyrate, 100 mM butyrate with 10 mM MCPA, 1.5 mM IOX2, or PBS control under anesthesia. Mice were then sacrificed 1 h after rectal supplementation and colon tissues collected for metabolite, mRNA, and protein analysis from the site of the rectal gavage.
(§4) TRIzol® reagent (ThermoFisher Scientific) was used to isolate total RNA from T84 cells. Mouse colon tissue samples were harvested into RNAlater™ (Invitrogen) and stored at 4°C for 48 h. Total RNA was isolated from the tissues using RNeasy Plus Mini Kit (Qiagen). cDNA was prepared using the iScript cDNA Synthesis Kit (Bio-Rad). Quantitative PCR analysis was performed using the Power SYBR™ Green master mix (Applied Biosystems) in a thermocycler. Fold change in expression of target mRNA relative to β-actin (ACTB) mRNA was calculated using the delta-delta Ct method. Primer sequences used are as follows: hBNIP3 – forward, 5′- […] −3′, reverse, 5′- […] −3′; hBNIP3L – forward, 5′- […] −3′, reverse, 5′- […] −3′; hGLUT1 – forward, 5′- […] −3′, reverse, 5′- […] −3′; hACTB – forward, 5′- […]-3′, reverse, 5′- […]-3′; mBnip3 – forward, 5′- […] −3′, reverse, 5′- […] −3′; mBnip3l – forward, 5′- […] −3′, reverse, 5′- […] −3′; mGlut1 – forward, 5′- […] −3′, reverse, 5′- […] −3′; and mActb – forward, 5′- […] −3′, reverse, 5′- […] −3′.
(§5) T84 cells were rinsed with PBS and collected and lysed in 200 µL of radioimmunoprecipitation assay (RIPA, 50 mM Tris-HCl pH 8.0, 1 mM EDTA, 1% Triton X-100, […], 0.5% sodium deoxycholate, 150 mM NaCl) buffer with protease inhibitors on ice. Mouse colon samples were harvested into 350 µL of RIPA buffer and flash frozen in liquid nitrogen. Samples were homogenized by sonication, and insoluble materials removed by centrifugation at 10,000 g for 5 min at 4°C. Protein quantity of the supernatant was determined using the Bradford reagent. Laemmli sample buffer was added to each sample. Samples (20 µg) were run and separated on 8% SDS-PAGE gels and transferred to polyvinylidene fluoride (PVDF) membranes. Membranes were blocked overnight at 4°C in Tris-buffered saline with 1% Tween-20 (TBS-T) and 5% milk. […]

T84 cells [5] = test: Butyrate metabolism and oxygen consumption in T84 cells; assay type: cell-based
Experimental: as §1, §2

murine colon tissue [6] = test: Tributyrin oral gavage in antibiotic-treated SCFA-depleted mice; assay type: in vivo
Experimental: as §3, §4, §5

rat hepatocytes = system: rat hepatocytes; design: method as in PMID 9124539; conditions: cited from earlier work
[7] = design: method as in PMID 10321503; conditions: mice, oral gavage with tributyrin, 1 h after dosing; cited from earlier work
[8] = 1 μM PHD2_181-402, 10 μM 2-OG, 10 μM Fe(II), 10 μM HIF-1α547-581 peptide, 100 μM ascorbic acid, 10-minute reaction, calculated from measured IC50 accounting for substrate conversion, error SEM

T1 sequence (Q9GZT9 181-402): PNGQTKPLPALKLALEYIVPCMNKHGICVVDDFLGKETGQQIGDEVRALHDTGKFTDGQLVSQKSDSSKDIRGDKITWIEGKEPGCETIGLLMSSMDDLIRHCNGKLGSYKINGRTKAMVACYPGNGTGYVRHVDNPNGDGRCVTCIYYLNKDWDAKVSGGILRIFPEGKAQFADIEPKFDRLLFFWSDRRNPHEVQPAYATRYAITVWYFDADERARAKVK

| SMILES | IC50 (PHD2_181-402 [1]; [8]) [mM] | fold less effective at inhibiting PHD2_181-402 (compared to butyrate) (PHD2_181-402 [1]) | binding to PHD2_181-402 (WaterLOGSY signal) (PHD2_181-402 [2]) | HDAC inhibition (HDACs) | further results |
| --- | --- | --- | --- | --- | --- |
| CCC(CC)C(=O)O [2-Ethylbutyrate] | 77 ± 6 | – | – | – | – |
| CC(O)CC(=O)O (stereo not shown) [3-Hydroxybutyrate] | 14 ± 1 | – | – | – | – |
| CC(=O)O [Acetate] | 50 ± 10 | ~ 10 fold | no binding | none | – |
| COC(=O)CNC(=O)C(=O)OC [DMOG, dimethyloxalylglycine, reference compound] | 1.9 ± 0.5 | – | – | – | change of IC50 with increasing 2-OG (PHD2_181-402 [1]; 2-OG at 1, 5, 10, 40 or 100 µM): increased significantly |
| CCCCCC(=O)O [Hexanoate] | – | ~ 3 fold | – | lesser degrees of HDAC inhibition | IC50 (PHD2_181-402 [1]): 17 ± 3 mM |
| O=C(O)CNC(=O)c1c(O)c2ccccc2n(Cc2ccccc2)c1=O [IOX2, reference compound] | – | – | – | – | 2-OG levels compared to control (T84 cells [3]): lesser extent than butyrate; mRNA expression of HIF-1α targets Bnip3, Bnip3l, Glut1 (murine colon tissue [4]; colon tissue): rescued; colon tissue 2-OG levels (murine colon tissue [4]): rescued |
| C=C1CC1CC(=O)O (stereo not shown) [MCPA, methylene cyclopropyl acetic acid] | – | – | – | – | butyrate metabolism (T84 cells [5]; 600 μM butyrate with 1 mM MCPA, 0 to 6 h): reduced butyrate metabolism; butyrate-associated oxygen consumption (T84 cells [5]; 5 mM butyrate with 1 mM MCPA, 30 min): eliminated the increase in oxygen consumption; colon tissue butyrate level compared to tributyrin alone (murine colon tissue [6]; 60 mM MCPA rectal gavage 4 h in mice given tributyrin): significantly increased; reduction of acetyl-CoA levels (rat hepatocytes): 70–90% |
| CCC(=O)O [Propionate] | 60 ± 10 | ~ 10 fold | no binding | lesser degrees of HDAC inhibition | – |
| CCCCC(=O)O [Valerate] | – | ~ 3 fold | no binding | lesser degrees of HDAC inhibition | IC50 (PHD2_181-402 [1]): 16 ± 3 mM |
| CCCC(=O)OCC(COC(=O)CCC)OC(=O)CCC [tributyrin] | – | – | – | – | HIF-1α protein (murine colon tissue [6]; epithelial scrapings and whole-colon tissue, tributyrin 200 µL, 3 d, with or without MCPA): rescued; colon tissue 2-OG levels (murine colon tissue [6]; tributyrin 200 µL, 3 d, with or without MCPA): recovered; colon tissue butyrate levels (murine colon tissue [6]; tributyrin 200 µL, 3 d, with or without MCPA, versus antibiotics (glycerol control)): rescued; HIF-1α target gene Bnip3l mRNA (murine colon tissue [6]; whole-colon tissue and epithelial scrapings, tributyrin 200 µL oral gavage daily for 3 d, with or without 60 mM MCPA rectal 4 h): normalized; plasma butyrate concentrations [7]: > 1 mM |
